Data taken from paper PMC4503722, “Novel Phenotypic Outcomes Identified for a Public Collection of Approved Drugs from a Publicly Accessible Panel of Assays” (PLoS ONE, 2015).
Where two headings read alike, the source gives them in different places.

How the values were obtained:
Assay in all cases: cells
NCI-H716 cells = type: cell-based, Human; settings: read-out: GLP 1 Secretion
SNU-C1 = type: cell-based; settings: read-out: Basal_Viability ATP SNU-C1
[1] = system: HCT116 cells treated with a GSK3β inhibitor; type: cell-based
[2] = system: nuclear β-catenin in C2C12 cells; type: cell-based; settings: read-out: Wnt Pathway
INS-1E cells = type: cell-based, rat; settings: read-out: Insulin Secretion
HeLa cells = type: cell-based; settings: read-out: CellCycle G2/M
HT-29 = type: cell-based
[3] = system: endothelial tube formation in co-cultures of ECFCs and ADSCs treated with VEGF; type: cell-based, human; settings: read-out: Anti-Angiogenesis
RKO = type: cell-based; settings: read-out: Basal_Viability ATP RKO
SW480 = type: cell-based; settings: read-out: Basal_Viability ATP SW480
Colo320 = type: cell-based; settings: read-out: Basal_Viability ATP Colo 320
HCT116 = type: cell-based; settings: read-out: Basal_Viability ATP HCT116
DLD-1 = type: cell-based; settings: read-out: Basal_Viability ATP DLD-1
[4] = read-out: GSK3b inh pretreated_Viability ATP HCT116
[5] = read-out: Basal_Viability ATP HT-29
[6] = Homo sapiens, IC50 / EC50, NCI-H716
[7] = Homo sapiens, HCT-116, GSK3b inhibitor pretreated, read-out: GSK3b inh pretreated_Viability ATP HCT116
[8] = Mus musculus, C2C12, IC50 / EC50, C2C12 beta-catenin translocation
[9] = Rattus norvegicus, IC50 / EC50, INS-1E
[10] = Homo sapiens, HeLa, IC50 / EC50, HeLa
[11] = Homo sapiens, IC50 / EC50, endothelial tube area, ADSC/ECFC co-culture
[12] = S2 Table, module primary assay, 20 / 20.1 codes per legend
[13] = Homo sapiens, SNU-C1, basal, SNU-C1
[14] = Homo sapiens, HeLa, S2 Table, HeLa, 20 = no response at highest concentration
[15] = Homo sapiens; basal; HT-29; read-out: Basal_Viability ATP HT-29
[16] = Homo sapiens, SW480, basal, SW480
[17] = Homo sapiens, HCT-116, basal, HCT116
[18] = Homo sapiens, DLD-1, basal, DLD-1

`Oc1ccc([C@@H]2CNCc3c2ccc(O)c3O)cc1O` [Zelandopam] was tested, and the EC50 (NCI-H716 cells) was 5950 nM, the IC50 (SNU-C1) was greater than 20000 nM and the IC50 [1, 4] was 188 nM. The EC50 [2] was greater than 10000 nM, the EC50 (INS-1E cells) was greater than 10000 nM and the EC50 (HeLa cells) was greater than 10000 nM. It also gave an IC50 (HT-29; [5]) greater than 20000 nM, an IC50 [3] greater than 10000 nM and an IC50 (RKO) of 33.2 nM. The IC50 (SW480) was greater than 20000 nM, the IC50 (Colo320) was 466 nM and the IC50 (HCT116) was greater than 20000 nM. For the same molecule, the IC50 (DLD-1) was greater than 20000 nM.

`CN(C)CCOC(c1ccccc1)c1ccc(Br)cc1` (stereo not drawn) [Bromazine] was tested, and the EC50 (NCI-H716 cells; [6]) was greater than 10000 nM, the IC50 (SNU-C1; Homo sapiens, SNU-C1, basal) was 3100 nM and the IC50 [1, 7] was greater than 20000 nM. The EC50 [2, 8] was greater than 10000 nM, the EC50 (INS-1E cells; [9]) was 2770 nM and the EC50 (HeLa cells; [10]) was greater than 10000 nM. The IC50 (HT-29; Homo sapiens, HT-29, read-out: Basal_Viability ATP HT-29) was 17000 nM, the IC50 [3, 11] was greater than 10000 nM and the IC50 (RKO; Homo sapiens, RKO) was greater than 20000 nM. It also gave an IC50 (SW480; Homo sapiens, SW480, basal) greater than 20000 nM, an IC50 (Colo320; Homo sapiens, COLO 320) greater than 20000 nM and an IC50 (HCT116; Homo sapiens, HCT-116, basal) greater than 20000 nM. The IC50 (DLD-1; Homo sapiens, DLD-1, basal) was greater than 20000 nM.

In the case of `CC(=O)[O][Hg][c]1ccccc1` [Mercury, (acetato-o)phenyl-], the EC50 (NCI-H716 cells) is reported as 713 nM, the IC50 (SNU-C1; basal, SNU-C1) is reported as 192 nM and the IC50 ([1]; HCT116 pretreated with GSK3b inhibitor, read-out: GSK3b inh pretreated_Viability ATP HCT116) is reported as 360 nM. It also gave an EC50 [2, 12] greater than 10000 nM, an EC50 (INS-1E cells; [12]) greater than 10000 nM and an IC50 (HT-29; basal; HT-29; read-out: Basal_Viability ATP HT-29) of 799 nM. It also gave an IC50 [3] of 530 nM, an IC50 (RKO; basal, RKO) of 1200 nM and an IC50 (SW480; basal, SW480) of 543 nM. The IC50 (Colo320; basal, Colo 320) was 1300 nM, the IC50 (HCT116; basal, HCT116) was 2800 nM and the IC50 (DLD-1; basal, DLD-1) was 736 nM.

Work on `CCCCOC(=O)c1ccc(N)cc1` [Butyl aminobenzoate] yielded an EC50 (NCI-H716 cells; Homo sapiens, NCI-H716) greater than 10000 nM, an IC50 (SNU-C1; [13]) greater than 20000 nM and an IC50 ([1]; Homo sapiens, HCT-116, read-out: GSK3b inh pretreated_Viability ATP HCT116) of 5610 nM. It also gave an EC50 ([2]; Mus musculus, C2C12, S2 Table, module primary assay, 20 / 20.1 codes per legend) greater than 10000 nM, an EC50 (INS-1E cells; Rattus norvegicus, INS-1E) greater than 10000 nM and an EC50 (HeLa cells; [14]) greater than 10000 nM. For the same molecule, the IC50 (HT-29; [15]) was greater than 20000 nM, the IC50 ([3]; Homo sapiens, S2 Table, module primary assay, 20 = no response at highest concentration, 20.1 = inactive in single concentration testing) was greater than 10000 nM and the IC50 (RKO; Homo sapiens, basal, RKO) was 137 nM. For the same molecule, the IC50 (SW480; [16]) was 586 nM, the IC50 (Colo320; Homo sapiens, basal, Colo 320) was greater than 20000 nM and the IC50 (HCT116; [17]) was greater than 20000 nM. For the same molecule, the IC50 (DLD-1; [18]) was 4560 nM.

With `O=C1C2CC=CCC2C(=O)N1SC(Cl)(Cl)Cl` (stereo not drawn) [captan] the EC50 (NCI-H716 cells; Homo sapiens, NCI-H716) was greater than 10000 nM, the IC50 (SNU-C1; [13]) was 903 nM and the IC50 ([1]; Homo sapiens, HCT-116, HCT116 pretreated with GSK3b inhibitor, read-out: GSK3b inh pretreated_Viability ATP HCT116) was 2210 nM. The EC50 ([2]; Mus musculus, C2C12) was 511 nM, the EC50 (INS-1E cells; Rattus norvegicus, INS-1E) was greater than 10000 nM and the EC50 (HeLa cells; [14]) was greater than 10000 nM. For the same molecule, the IC50 (HT-29; [15]) was 500 nM, the IC50 ([3]; Homo sapiens) was greater than 10000 nM and the IC50 (RKO; Homo sapiens, basal, RKO) was 402 nM. It also gave an IC50 (SW480; [16]) of 78.8 nM, an IC50 (Colo320; Homo sapiens, basal, Colo 320) of 306 nM and an IC50 (HCT116; [17]) of 1760 nM. The IC50 (DLD-1; [18]) was 348 nM.

With `CCC(COC(=O)c1cc(OC)c(OC)c(OC)c1)(c1ccccc1)N(C)C` (stereo not drawn) the EC50 (NCI-H716 cells) was greater than 10000 nM, the IC50 (SNU-C1) was 2450 nM and the IC50 [1, 4] was 1620 nM. The EC50 [2] was greater than 10000 nM, the EC50 (INS-1E cells) was greater than 10000 nM and the EC50 (HeLa cells) was greater than 10000 nM. For the same molecule, the IC50 (HT-29; [5]) was greater than 20000 nM, the IC50 [3] was greater than 10000 nM and the IC50 (RKO) was 142 nM. It also gave an IC50 (SW480) greater than 20000 nM, an IC50 (Colo320) greater than 20000 nM and an IC50 (HCT116) greater than 20000 nM. The IC50 (DLD-1) was greater than 20000 nM.

`CC(=O)O[C@@]12CO[C@@H]1C[C@H](O)[C@@]1(C)C(=O)[C@H](O)C3=C(C)[C@@H](OC(=O)[C@H](O)[C@@H](NC(=O)OC(C)(C)C)c4ccccc4)C[C@@](O)([C@@H](OC(=O)c4ccccc4)[C@H]21)C3(C)C` [docetaxel] showed an EC50 (NCI-H716 cells; [6]) greater than 10000 nM, an IC50 (SNU-C1; Homo sapiens, SNU-C1, basal) greater than 20000 nM and an IC50 [1, 7] of 1 nM. The EC50 [2, 8] was 65.2 nM, the EC50 (INS-1E cells; [9]) was greater than 10000 nM and the EC50 (HeLa cells; [10]) was 3.35 nM. The IC50 (HT-29; Homo sapiens, HT-29; read-out: Basal_Viability ATP HT-29) was 1 nM, the IC50 [3, 11] was 1 nM and the IC50 (RKO; Homo sapiens, RKO) was 1 nM. The IC50 (SW480; Homo sapiens, SW480, basal) was 1 nM, the IC50 (Colo320; Homo sapiens, COLO 320) was 1 nM and the IC50 (HCT116; Homo sapiens, HCT-116, basal) was 1 nM. For the same molecule, the IC50 (DLD-1; Homo sapiens, DLD-1, basal) was 8200 nM.
